Assay results as given in patent US20080153743A1, “METHODS RELATING TO THE TREATMENT OF FIBROSIS” (UNIVERSITY OF WASHINGTON, priority 2005, published 2008).

Columns and labels:
S100A4 = test: RT-PCR for S100A4 in bleomycin treated mice; assay type: in vivo; settings: 5 mgs/Kg/day s.c., versus saline/saline mice
[1] = biological target: β-catenin/p300 interaction (Homo sapiens, UniProt Q09472); settings: cited from earlier work
E-Cadherin = test: Western blot for E-Cadherin in IPF patient fibroblasts; assay type: cell-based, human; settings: RPMI1640+10% FBS, 2 days, also true at the mRNA level
Protocol: (§1) Western blots for S100A4 (also know as FSP-1 or fibroblast specific protein-1) and E-Cadherin were performed on whole cell lysates.

collagen1A2 = test: RT-PCR for collagen1A2 in bleomycin treated mice; assay type: in vivo; settings: 5 mgs/Kg/day s.c., versus saline/saline mice
[2] = test system: TCF/β-catenin transcription; test: Bat-Gal transgenic mice, bleomycin model, X-Gal/β-galactosidase read out of TCF/β-catenin transcription; assay type: in vivo; settings: 5 mg/Kg/day s.c., intratracheal bleomycin
Protocol: Furthermore, utilizing a specific inhibitor of Wnt/β-catenin/CBP driven transcription (ICG-001, 5 mg/Kg/day s.c.) Wnt/β-catenin was inhibited by >95% as judged by β-galactogidase activity. ICG-001 is among the structures described in detail below.
Using this murine model of pulmonary fibrosis in transgenic Bat-al mice, ICG-001 (5 mg/Kg/day) blocked >95% of bleomycin-induced TCF/βcatenin transcription.
These mice have a Beta-Galactosidase transgene driven by a TCF/Catenin driven promoter (i.e. a read out for activated Wnt/catenin signaling). The mice were given intratracheal saline or bleomycin and either treated with ICG-001 (5 mgs/Kg/day subcutaneously) or saline as vehicle control. The mice were sacrificed and the lungs sectioned and stained with X-Gal (blue color) A) intratracheal bleo+saline. B) intracheal bleo+ICG-001 C) saline+saline.
The dose was selected because ICG-001 reduces TCF/βCatenin driven O-Galactosidase expression >95% at 5 mgs/Kg/day.

[3] = biological target: β-catenin/CBP interaction (Homo sapiens, UniProt Q92793); settings: cited from earlier work
Chain of β-catenin/CBP interaction (Q92793 whole entry): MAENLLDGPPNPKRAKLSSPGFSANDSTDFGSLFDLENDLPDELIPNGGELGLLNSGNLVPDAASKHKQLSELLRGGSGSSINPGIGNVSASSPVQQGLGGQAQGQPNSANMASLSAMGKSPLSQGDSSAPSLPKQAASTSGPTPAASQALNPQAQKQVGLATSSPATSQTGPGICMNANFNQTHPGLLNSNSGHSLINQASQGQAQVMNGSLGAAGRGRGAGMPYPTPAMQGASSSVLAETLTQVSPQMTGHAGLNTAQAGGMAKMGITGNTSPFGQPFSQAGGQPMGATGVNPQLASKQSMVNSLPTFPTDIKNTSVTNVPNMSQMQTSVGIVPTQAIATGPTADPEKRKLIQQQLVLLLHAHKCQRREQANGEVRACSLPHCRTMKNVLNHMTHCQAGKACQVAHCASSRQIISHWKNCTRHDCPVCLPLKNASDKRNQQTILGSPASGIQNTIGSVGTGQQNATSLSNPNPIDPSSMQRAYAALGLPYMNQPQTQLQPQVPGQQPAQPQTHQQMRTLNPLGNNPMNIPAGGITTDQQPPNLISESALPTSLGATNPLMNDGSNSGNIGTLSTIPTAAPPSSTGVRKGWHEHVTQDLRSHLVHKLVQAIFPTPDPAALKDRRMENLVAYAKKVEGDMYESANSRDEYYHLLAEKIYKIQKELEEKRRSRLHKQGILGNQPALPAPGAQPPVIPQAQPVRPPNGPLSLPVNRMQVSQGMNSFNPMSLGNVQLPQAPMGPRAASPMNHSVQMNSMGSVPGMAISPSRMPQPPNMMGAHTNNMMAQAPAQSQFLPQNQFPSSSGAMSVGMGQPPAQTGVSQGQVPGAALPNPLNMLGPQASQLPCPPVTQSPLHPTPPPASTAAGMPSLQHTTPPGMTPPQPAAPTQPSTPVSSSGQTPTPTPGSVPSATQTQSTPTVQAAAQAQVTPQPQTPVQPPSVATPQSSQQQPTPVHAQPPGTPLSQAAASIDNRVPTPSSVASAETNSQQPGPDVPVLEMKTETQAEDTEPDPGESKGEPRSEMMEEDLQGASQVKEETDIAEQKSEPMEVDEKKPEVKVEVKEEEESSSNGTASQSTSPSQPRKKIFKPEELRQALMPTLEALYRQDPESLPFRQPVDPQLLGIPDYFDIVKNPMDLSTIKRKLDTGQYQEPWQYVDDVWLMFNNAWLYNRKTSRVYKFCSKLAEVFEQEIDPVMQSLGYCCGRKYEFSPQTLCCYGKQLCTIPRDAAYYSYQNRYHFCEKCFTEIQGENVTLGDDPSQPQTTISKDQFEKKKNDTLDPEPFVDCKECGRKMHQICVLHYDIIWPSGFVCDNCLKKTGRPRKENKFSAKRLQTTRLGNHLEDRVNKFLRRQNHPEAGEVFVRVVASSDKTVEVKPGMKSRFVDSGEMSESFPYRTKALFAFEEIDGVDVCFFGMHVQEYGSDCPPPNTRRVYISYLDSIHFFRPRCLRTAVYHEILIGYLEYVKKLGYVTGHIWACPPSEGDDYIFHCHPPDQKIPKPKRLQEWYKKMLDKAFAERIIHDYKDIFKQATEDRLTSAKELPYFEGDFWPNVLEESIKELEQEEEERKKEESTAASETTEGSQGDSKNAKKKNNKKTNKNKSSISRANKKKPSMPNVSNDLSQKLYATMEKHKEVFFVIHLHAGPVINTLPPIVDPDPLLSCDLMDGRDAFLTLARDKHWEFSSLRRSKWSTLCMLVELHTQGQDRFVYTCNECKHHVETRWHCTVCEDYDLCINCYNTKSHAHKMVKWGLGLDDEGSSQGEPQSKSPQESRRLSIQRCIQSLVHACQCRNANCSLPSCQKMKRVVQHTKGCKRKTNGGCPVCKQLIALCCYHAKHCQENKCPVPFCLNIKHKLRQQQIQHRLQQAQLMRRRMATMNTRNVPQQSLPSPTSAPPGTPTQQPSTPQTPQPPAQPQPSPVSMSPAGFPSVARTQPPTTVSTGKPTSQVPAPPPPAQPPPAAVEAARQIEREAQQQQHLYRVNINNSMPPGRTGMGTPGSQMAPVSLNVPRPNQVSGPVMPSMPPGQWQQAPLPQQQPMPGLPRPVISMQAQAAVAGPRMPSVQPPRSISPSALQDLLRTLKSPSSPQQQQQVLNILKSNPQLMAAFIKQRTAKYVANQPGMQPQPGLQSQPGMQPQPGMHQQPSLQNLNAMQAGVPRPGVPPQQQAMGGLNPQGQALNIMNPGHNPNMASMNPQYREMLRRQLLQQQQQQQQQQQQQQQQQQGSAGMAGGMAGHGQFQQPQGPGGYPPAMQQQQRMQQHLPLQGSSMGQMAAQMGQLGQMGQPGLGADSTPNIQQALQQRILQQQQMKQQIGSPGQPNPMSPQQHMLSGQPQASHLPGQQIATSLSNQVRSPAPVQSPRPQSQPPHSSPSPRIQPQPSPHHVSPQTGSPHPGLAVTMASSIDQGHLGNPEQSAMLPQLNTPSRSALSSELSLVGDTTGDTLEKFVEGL

S100A4 (FSP-1) = test: Western blot for S100A4 in IPF patient fibroblasts; assay type: cell-based, human; settings: RPMI1640+10% FBS, 2 days, also true at the mRNA level
Protocol: as §1

[4] = test system: bleomycin induced pulmonary fibrosis; test: Bleomycin induced pulmonary fibrosis in C57/B16 mice, trichrome histology, body weight, survival; assay type: in vivo
Protocol: Murine models of bleomycin induced fibrosis have been developed in order to study fibrotic disease progression.
There is an absence of airway epithelium in lower left compared to upper left (see arrow heads) and extensive collagen deposition (lower left). On the sixth day, either saline (upper right) or ICG-001 (5 mgs/Kg/day) was administered for 10 days after which the mice were sacrificed and sectioned. Of interest is the upper right (saline treatment) showing lack of normal airway epithelialization, extensive collagen deposition and intra-airway hypercellularity (fibroblasts and inflammatory influx).

[5] = 5 mgs/Kg/day for 10 days from the sixth day after intratracheal bleomycin

Chain of β-catenin/p300 interaction (Q09472 whole entry): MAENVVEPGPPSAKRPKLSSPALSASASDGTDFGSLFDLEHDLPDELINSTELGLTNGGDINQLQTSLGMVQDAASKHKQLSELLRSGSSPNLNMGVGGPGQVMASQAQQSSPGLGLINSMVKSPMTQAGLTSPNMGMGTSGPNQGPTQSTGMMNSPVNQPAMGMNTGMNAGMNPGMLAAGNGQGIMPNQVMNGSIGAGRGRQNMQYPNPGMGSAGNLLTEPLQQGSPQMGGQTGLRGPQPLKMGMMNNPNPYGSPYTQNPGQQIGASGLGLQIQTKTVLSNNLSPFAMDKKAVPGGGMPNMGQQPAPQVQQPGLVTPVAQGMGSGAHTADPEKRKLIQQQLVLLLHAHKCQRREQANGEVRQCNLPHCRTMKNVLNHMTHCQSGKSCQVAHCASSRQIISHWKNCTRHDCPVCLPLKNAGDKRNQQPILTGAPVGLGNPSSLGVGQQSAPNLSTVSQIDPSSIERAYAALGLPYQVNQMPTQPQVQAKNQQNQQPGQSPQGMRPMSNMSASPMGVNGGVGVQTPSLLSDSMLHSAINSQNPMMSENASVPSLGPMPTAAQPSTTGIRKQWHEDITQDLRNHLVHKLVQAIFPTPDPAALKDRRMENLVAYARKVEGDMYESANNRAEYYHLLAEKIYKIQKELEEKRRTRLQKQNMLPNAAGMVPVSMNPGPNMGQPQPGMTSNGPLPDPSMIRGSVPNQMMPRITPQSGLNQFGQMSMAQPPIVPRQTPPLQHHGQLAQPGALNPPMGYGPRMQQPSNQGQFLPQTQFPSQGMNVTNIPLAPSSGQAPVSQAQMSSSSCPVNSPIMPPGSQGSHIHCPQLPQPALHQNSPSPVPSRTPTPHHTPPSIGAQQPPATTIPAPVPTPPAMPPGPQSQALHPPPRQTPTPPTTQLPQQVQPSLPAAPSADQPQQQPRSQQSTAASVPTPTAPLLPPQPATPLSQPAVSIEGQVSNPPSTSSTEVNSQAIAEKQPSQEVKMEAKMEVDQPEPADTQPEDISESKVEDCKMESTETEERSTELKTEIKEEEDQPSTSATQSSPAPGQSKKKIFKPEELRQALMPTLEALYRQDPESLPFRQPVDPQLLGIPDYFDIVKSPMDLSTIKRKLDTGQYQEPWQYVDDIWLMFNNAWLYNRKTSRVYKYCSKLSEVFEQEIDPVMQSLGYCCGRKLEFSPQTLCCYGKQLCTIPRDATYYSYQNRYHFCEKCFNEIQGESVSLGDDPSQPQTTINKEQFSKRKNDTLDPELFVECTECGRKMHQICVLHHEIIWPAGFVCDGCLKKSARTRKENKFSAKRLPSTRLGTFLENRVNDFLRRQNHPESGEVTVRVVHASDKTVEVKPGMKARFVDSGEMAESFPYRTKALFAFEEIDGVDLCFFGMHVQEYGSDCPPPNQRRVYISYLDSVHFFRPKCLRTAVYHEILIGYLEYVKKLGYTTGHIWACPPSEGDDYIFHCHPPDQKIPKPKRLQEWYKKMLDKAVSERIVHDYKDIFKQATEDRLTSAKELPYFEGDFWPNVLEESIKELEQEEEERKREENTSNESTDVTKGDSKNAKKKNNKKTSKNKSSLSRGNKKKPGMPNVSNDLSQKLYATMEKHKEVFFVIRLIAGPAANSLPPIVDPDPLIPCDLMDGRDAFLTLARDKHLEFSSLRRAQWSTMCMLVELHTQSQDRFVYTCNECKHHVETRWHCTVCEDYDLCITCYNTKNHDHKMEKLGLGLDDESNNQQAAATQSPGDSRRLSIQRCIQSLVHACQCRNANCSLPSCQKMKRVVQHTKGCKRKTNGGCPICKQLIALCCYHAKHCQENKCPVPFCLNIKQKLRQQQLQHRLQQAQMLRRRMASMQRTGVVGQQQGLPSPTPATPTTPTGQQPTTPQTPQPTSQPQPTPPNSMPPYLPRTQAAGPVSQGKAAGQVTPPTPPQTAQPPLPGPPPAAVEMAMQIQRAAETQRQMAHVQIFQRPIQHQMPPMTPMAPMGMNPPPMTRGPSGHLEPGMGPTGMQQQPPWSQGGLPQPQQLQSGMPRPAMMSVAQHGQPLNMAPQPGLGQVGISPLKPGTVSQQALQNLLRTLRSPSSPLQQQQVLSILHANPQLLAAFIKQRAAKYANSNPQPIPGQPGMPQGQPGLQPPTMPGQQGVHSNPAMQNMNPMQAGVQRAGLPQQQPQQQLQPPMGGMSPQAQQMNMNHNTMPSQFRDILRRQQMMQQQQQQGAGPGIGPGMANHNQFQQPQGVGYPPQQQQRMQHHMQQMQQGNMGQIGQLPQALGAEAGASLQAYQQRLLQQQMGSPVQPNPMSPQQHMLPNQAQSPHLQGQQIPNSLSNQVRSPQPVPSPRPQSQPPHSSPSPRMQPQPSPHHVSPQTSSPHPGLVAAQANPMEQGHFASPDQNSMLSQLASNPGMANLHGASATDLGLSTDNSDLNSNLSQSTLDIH

In the case of O=C1[C@H](Cc2ccc(O)cc2)N2C(=O)CCN(C(=O)NCc3ccccc3)[C@H]2CN1Cc1cccc2ccccc12 [ICG-001], the “S100A4 message (RT-PCR)” value (S100A4) is listed as “reduced essentially to negative control”, the “effect on β-catenin/p300 interaction” value [1] is listed as “without interfering” and the “E-cadherin expression (Western blot, whole cell lysates)” value (E-Cadherin) is listed as “increased E-cadherin expression”. The “collagen1A2 message (RT-PCR)” value (collagen1A2) was “reduced essentially to negative control”, the “inhibition of bleomycin-induced TCF/β-catenin transcription (β-galactosidase activity)” value [2] was > 95% and the “effect on β-catenin/CBP interaction” value [3] was “selectively blocks the β-catenin/CBP interaction”. The “S100A4 expression (Western blot, whole cell lysates)” value (S100A4 (FSP-1)) was “decreased S100A4 expression”, the “disease progression, as judged by reduced mortality, histopathology and endogenous gene expression” value ([4]; 5 mg/Kg/day, murine bleomycin model) was “not only halts but reverses disease progression” and the “airway histology (lung sections)” value [4, 5] was “the airway looks essentially normal”. The body weight [4, 5] was “regained normal body weight”, the “collagen levels (trichrome stain)” value [4, 5] was “normal collagen levels” and the survival ([4]; 5 mgs/Kg/day for 10 days from the sixth day after intratracheal bleomycin, untreated controls did not survive) was “survived”.
